Results on 3 compounds are retold here after ChEMBL document CHEMBL1909046, “DrugMatrix in vitro pharmacology data”.

In the first series the target is 5-hydroxytryptamine receptor 6 (Homo sapiens, UniProt P50406). Further: in other assays of this panel Not Active means under 50% inhibition at 10 µM.
Sequence of 5-hydroxytryptamine receptor 6 (P50406 whole entry): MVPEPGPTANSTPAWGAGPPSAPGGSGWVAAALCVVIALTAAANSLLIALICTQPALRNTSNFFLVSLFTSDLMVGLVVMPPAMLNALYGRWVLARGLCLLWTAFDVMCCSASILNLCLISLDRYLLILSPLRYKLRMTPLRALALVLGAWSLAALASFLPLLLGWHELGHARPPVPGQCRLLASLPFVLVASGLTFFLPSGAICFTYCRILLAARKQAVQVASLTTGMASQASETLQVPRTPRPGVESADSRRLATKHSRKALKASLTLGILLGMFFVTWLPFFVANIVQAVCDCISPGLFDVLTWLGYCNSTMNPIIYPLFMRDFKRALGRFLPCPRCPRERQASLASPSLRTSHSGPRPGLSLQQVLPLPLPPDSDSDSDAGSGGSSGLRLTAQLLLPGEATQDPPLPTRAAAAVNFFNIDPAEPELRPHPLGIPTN
Test: not given
It is filed as cell membranes, HeLa, Membrane. The following applies: hela.
For `COC1=CC(=O)C[C@@H](C)[C@]12Oc1c(Cl)c(OC)cc(OC)c1C2=O` [GRISEOFULVIN], the IC50 result is reported as “Not Active”.
On the same count and under the same terms, then `CNC(=O)Oc1ccc2c(c1)[C@]1(C)CCN(C)[C@@H]1N2C` [PHYSOSTIGMINE], with “Not Active”; and `CCCCOC(=O)c1ccc(N)cc1` [BUTAMBEN], with “Not Active”.

System in the next series: not listed separately
The series can be described thus: DRUGMATRIX: Calcium Channel Type L, Benzothiazepine radioligand binding (ligand: [3H] Diltiazem). The following applies: Not Active = under 50% inhibition at 10 µM. It is filed as cell membranes, Rattus norvegicus, Wistar, Brain, Membrane.
Take `COC1=CC(=O)C[C@@H](C)[C@]12Oc1c(Cl)c(OC)cc(OC)c1C2=O` [GRISEOFULVIN]: the IC50 result was “Not Active” and the Ki result is on record as “Not Active”.
In the case of `CNC(=O)Oc1ccc2c(c1)[C@]1(C)CCN(C)[C@@H]1N2C` [PHYSOSTIGMINE], the IC50 entry is “Not Active” and the Ki entry is recorded as “Not Active”.
Consider `CCCCOC(=O)c1ccc(N)cc1` [BUTAMBEN], for which the IC50 entry was “Not Active” and the Ki entry is given as “Not Active”.

For another series, the target named is Histamine H2 receptor (Homo sapiens, UniProt P25021). Further: in other assays of this panel Not Active means under 50% inhibition at 10 µM.
Sequence of Histamine H2 receptor (P25021 whole entry): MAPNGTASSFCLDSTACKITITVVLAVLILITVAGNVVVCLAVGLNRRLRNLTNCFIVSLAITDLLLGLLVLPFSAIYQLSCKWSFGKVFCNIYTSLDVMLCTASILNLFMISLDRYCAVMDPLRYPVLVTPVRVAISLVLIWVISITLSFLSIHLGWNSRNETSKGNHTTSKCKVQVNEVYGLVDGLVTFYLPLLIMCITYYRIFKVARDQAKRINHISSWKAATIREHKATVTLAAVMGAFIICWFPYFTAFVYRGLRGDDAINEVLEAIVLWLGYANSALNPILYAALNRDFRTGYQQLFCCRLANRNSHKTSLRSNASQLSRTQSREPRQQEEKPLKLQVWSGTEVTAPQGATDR
Test: not given
In kind it is cell membranes, CHO-K1, Membrane. The following applies: cho-k1.
For the compound `COC1=CC(=O)C[C@@H](C)[C@]12Oc1c(Cl)c(OC)cc(OC)c1C2=O` [GRISEOFULVIN], the IC50 result was “Not Active”.
Still for that read-out and setting: to `CNC(=O)Oc1ccc2c(c1)[C@]1(C)CCN(C)[C@@H]1N2C` [PHYSOSTIGMINE] belongs “Not Active”.
Regarding `CCCCOC(=O)c1ccc(N)cc1` [BUTAMBEN], the IC50 entry was “Not Active”.

System in another series: not listed separately
The series can be described thus: DRUGMATRIX: GABAA, Chloride Channel, TBOB radioligand binding (ligand: [3H] TBOB). In kind it is cell membranes, Rattus norvegicus, Wistar, Cerebral cortex, Membrane. The settings on record: Not Active = under 50% inhibition at 10 µM.
As to `COC1=CC(=O)C[C@@H](C)[C@]12Oc1c(Cl)c(OC)cc(OC)c1C2=O` [GRISEOFULVIN], the IC50 entry is “Not Active” and the Ki result was “Not Active”.
With `CNC(=O)Oc1ccc2c(c1)[C@]1(C)CCN(C)[C@@H]1N2C` [PHYSOSTIGMINE], the IC50 result is “Not Active” and the Ki result is recorded as “Not Active”.
Take `CCCCOC(=O)c1ccc(N)cc1` [BUTAMBEN]: the IC50 entry is “Not Active” and the Ki result is on record as “Not Active”.

The target of the next series is Cytochrome P450 2E1 (Homo sapiens, UniProt P05181). Further: in other assays of this panel Not Active means under 50% inhibition at 10 µM.
Sequence of Cytochrome P450 2E1 (P05181 whole entry): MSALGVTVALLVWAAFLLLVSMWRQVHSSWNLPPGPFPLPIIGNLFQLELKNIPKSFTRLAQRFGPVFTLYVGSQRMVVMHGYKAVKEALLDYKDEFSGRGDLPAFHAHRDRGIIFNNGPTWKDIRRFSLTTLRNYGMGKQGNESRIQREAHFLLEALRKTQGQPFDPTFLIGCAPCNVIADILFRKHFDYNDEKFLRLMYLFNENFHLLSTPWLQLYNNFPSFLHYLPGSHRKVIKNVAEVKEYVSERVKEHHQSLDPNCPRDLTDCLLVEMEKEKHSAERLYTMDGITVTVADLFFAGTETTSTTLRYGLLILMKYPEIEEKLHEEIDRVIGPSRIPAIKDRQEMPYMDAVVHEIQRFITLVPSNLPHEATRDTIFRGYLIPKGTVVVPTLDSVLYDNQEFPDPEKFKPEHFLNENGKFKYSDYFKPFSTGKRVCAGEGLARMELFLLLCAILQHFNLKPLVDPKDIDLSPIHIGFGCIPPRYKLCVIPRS
Test: not given
The following applies: bti-tn-5b1-4.
For `COC1=CC(=O)C[C@@H](C)[C@]12Oc1c(Cl)c(OC)cc(OC)c1C2=O` [GRISEOFULVIN], the IC50 result is reported as “Not Active” and the Ki entry is recorded as “Not Active”.
Regarding `CNC(=O)Oc1ccc2c(c1)[C@]1(C)CCN(C)[C@@H]1N2C` [PHYSOSTIGMINE], the IC50 result is listed as “Not Active” and the Ki entry is on record as “Not Active”.
`CCCCOC(=O)c1ccc(N)cc1` [BUTAMBEN]: the IC50 result was “Not Active” and the Ki result was “Not Active”.

The target in the next series is Beta-3 adrenergic receptor (Homo sapiens, UniProt P13945). The series can be described thus: DRUGMATRIX: Adrenergic beta3 radioligand binding (ligand: [125I] Cyanopindolol). The following applies: hek293; Not Active = under 50% inhibition at 10 µM. In kind it is cell membranes, HEK293, Membrane.
Sequence of Beta-3 adrenergic receptor (P13945 whole entry): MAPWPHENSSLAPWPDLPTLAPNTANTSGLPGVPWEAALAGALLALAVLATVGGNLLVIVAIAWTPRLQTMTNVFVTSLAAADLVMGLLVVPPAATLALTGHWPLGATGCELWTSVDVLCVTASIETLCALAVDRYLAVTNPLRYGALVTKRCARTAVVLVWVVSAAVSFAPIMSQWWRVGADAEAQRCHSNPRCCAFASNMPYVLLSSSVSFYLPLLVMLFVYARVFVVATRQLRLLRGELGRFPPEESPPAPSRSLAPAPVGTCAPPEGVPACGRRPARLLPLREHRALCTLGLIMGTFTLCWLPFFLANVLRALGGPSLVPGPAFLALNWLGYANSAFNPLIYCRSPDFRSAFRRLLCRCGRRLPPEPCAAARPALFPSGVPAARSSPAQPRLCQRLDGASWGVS
In the case of `COC1=CC(=O)C[C@@H](C)[C@]12Oc1c(Cl)c(OC)cc(OC)c1C2=O` [GRISEOFULVIN], the IC50 result is “Not Active”.
The same measure, in the same setting: to `CNC(=O)Oc1ccc2c(c1)[C@]1(C)CCN(C)[C@@H]1N2C` [PHYSOSTIGMINE] belongs “Not Active”; to `CCCCOC(=O)c1ccc(N)cc1` [BUTAMBEN], “Not Active”.

A further series concerns the target T1, Adenosine receptor A3 (Homo sapiens, UniProt P0DMS8).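 Further: radioligand binding assay with AB-MECA serving as the labeled ligand; in other assays of this panel Not Active means under 50% inhibition at 10 µM.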
T1 sequence (P0DMS8 whole entry): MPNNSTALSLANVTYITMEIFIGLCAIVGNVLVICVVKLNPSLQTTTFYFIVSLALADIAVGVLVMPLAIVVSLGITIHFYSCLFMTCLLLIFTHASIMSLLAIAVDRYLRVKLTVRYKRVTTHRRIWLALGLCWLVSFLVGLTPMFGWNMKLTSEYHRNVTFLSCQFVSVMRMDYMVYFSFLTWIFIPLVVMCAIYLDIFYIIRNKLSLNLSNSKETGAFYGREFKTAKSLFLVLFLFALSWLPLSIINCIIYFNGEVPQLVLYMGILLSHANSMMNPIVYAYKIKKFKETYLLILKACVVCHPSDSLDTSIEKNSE
Test: not given
It is filed as cell membranes, CHO-K1, Membrane. The following applies: cho-k1.
Turning to `COC1=CC(=O)C[C@@H](C)[C@]12Oc1c(Cl)c(OC)cc(OC)c1C2=O` [GRISEOFULVIN], the IC50 result is recorded as “Not Active”.
Consider `CNC(=O)Oc1ccc2c(c1)[C@]1(C)CCN(C)[C@@H]1N2C` [PHYSOSTIGMINE], for which the IC50 result is recorded as “Not Active”.
As for `CCCCOC(=O)c1ccc(N)cc1` [BUTAMBEN], the IC50 entry is “Not Active”.

For a further series, the target named is T2, Polyunsaturated fatty acid lipoxygenase ALOX15 (Oryctolagus cuniculus, UniProt P12530).
T2 sequence (P12530 whole entry): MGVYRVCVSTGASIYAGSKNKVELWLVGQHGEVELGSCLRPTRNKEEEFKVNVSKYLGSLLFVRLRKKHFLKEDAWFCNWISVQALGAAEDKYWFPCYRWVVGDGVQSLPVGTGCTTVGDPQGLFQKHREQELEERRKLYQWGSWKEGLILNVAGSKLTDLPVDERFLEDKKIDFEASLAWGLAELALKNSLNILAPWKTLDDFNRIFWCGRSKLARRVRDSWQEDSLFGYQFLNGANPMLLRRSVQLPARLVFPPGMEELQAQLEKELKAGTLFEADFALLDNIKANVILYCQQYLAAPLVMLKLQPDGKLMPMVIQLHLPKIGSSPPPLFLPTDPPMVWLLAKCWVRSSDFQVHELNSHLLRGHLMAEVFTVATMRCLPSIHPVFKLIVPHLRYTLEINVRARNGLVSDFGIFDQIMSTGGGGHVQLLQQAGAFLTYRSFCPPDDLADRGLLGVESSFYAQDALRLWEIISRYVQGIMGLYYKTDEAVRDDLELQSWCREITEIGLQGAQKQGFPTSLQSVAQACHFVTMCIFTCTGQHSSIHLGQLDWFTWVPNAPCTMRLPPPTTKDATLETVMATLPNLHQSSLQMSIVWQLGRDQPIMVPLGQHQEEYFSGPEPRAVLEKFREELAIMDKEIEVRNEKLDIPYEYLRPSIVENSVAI
The series can be described thus: biochemical. The following applies: reticulocytes. In kind it is tissue-based, Reticulocytes.
Turning to `COC1=CC(=O)C[C@@H](C)[C@]12Oc1c(Cl)c(OC)cc(OC)c1C2=O` [GRISEOFULVIN], the IC50 result is listed as “Not Active”.
Same read-out and setting: to `CNC(=O)Oc1ccc2c(c1)[C@]1(C)CCN(C)[C@@H]1N2C` [PHYSOSTIGMINE] belongs “Not Active”.
In the case of `CCCCOC(=O)c1ccc(N)cc1` [BUTAMBEN], the IC50 entry is given as “Not Active”.

In a further series the target is Cytochrome P450 2D6 (Homo sapiens, UniProt P10635). Further: in other assays of this panel Not Active means under 50% inhibition at 10 µM.
Sequence of Cytochrome P450 2D6 (P10635 whole entry): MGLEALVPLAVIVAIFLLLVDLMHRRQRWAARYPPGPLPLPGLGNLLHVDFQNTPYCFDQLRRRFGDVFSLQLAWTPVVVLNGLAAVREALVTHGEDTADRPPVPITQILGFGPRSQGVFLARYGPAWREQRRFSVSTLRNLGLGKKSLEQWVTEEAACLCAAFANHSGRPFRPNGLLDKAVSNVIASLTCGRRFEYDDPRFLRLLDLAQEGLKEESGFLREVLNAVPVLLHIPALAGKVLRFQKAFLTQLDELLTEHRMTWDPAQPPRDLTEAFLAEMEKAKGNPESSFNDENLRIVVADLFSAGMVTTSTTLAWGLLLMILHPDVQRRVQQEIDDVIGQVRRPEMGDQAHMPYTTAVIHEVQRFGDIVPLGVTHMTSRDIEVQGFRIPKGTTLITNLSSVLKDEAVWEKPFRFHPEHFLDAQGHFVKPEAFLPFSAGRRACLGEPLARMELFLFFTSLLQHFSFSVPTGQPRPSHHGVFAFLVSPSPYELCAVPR
Test: not given
The following applies: bti-tn-5b1-4.
Consider `COC1=CC(=O)C[C@@H](C)[C@]12Oc1c(Cl)c(OC)cc(OC)c1C2=O` [GRISEOFULVIN], for which the IC50 entry is on record as “Not Active” and the Ki entry is on record as “Not Active”.

For another series, the target named is T3, C-X-C chemokine receptor type 2 (Homo sapiens, UniProt P25025). Further: in other assays of this panel Not Active means under 50% inhibition at 10 µM.
T3 sequence (P25025 whole entry): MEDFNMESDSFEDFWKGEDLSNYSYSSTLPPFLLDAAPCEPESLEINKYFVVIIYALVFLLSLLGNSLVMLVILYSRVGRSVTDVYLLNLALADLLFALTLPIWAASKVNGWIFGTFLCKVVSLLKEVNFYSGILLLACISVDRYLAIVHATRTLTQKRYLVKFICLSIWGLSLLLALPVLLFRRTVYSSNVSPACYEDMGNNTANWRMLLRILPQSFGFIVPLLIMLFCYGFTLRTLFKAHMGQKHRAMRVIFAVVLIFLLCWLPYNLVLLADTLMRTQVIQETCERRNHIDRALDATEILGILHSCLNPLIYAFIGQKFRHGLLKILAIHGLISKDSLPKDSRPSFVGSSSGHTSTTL
Test: not given
The following applies: cho-k1. In kind it is cell membranes, Membrane.
On to `COC1=CC(=O)C[C@@H](C)[C@]12Oc1c(Cl)c(OC)cc(OC)c1C2=O` [GRISEOFULVIN], for which the IC50 result is listed as “Not Active”.
Still for that read-out and setting: to `CNC(=O)Oc1ccc2c(c1)[C@]1(C)CCN(C)[C@@H]1N2C` [PHYSOSTIGMINE] belongs “Not Active”; to `CCCCOC(=O)c1ccc(N)cc1` [BUTAMBEN], “Not Active”.

For a further series, the target named is D(1A) dopamine receptor (Homo sapiens, UniProt P21728). The series can be described thus: DRUGMATRIX: Dopamine D1 radioligand binding (ligand: [3H] SCH-23390). It is filed as cell membranes, CHO, Membrane. The following applies: cho; Not Active = under 50% inhibition at 10 µM.
Sequence of D(1A) dopamine receptor (P21728 whole entry): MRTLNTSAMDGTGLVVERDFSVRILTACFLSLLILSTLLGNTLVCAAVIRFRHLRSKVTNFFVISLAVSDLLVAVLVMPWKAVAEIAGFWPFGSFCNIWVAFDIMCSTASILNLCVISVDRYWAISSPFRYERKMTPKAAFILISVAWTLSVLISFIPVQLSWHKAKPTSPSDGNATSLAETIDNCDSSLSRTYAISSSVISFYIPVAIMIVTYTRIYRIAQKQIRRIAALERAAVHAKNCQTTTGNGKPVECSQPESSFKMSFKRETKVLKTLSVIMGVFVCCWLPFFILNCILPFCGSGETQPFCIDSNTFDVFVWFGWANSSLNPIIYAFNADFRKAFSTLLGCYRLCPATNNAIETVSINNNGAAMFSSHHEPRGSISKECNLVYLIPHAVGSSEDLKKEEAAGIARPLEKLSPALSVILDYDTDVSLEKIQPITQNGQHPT
Consider `COC1=CC(=O)C[C@@H](C)[C@]12Oc1c(Cl)c(OC)cc(OC)c1C2=O` [GRISEOFULVIN], for which the IC50 entry was “Not Active”.
The same measure, in the same setting: to `CNC(=O)Oc1ccc2c(c1)[C@]1(C)CCN(C)[C@@H]1N2C` [PHYSOSTIGMINE] belongs “Not Active”.
As to `CCCCOC(=O)c1ccc(N)cc1` [BUTAMBEN], the IC50 result is listed as “Not Active”.

The target in another series is 5-hydroxytryptamine receptor 2B (Homo sapiens, UniProt P41595). Further: in other assays of this panel Not Active means under 50% inhibition at 10 µM.
Sequence of 5-hydroxytryptamine receptor 2B (P41595 whole entry): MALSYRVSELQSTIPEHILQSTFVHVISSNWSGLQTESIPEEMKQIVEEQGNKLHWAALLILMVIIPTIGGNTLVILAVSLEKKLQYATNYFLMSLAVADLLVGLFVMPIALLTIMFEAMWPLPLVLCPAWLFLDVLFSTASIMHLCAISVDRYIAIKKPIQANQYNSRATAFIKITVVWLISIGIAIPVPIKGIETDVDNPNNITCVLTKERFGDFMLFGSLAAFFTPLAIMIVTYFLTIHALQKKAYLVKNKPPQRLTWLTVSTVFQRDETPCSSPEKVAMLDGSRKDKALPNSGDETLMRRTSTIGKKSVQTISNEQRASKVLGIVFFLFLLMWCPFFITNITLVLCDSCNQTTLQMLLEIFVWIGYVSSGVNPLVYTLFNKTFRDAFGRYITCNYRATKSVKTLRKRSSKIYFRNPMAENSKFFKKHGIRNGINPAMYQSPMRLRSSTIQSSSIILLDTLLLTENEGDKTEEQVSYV
Test: not given
It is filed as cell membranes, CHO-K1, Membrane. The following applies: cho-k1.
On to `COC1=CC(=O)C[C@@H](C)[C@]12Oc1c(Cl)c(OC)cc(OC)c1C2=O` [GRISEOFULVIN], for which the IC50 entry is “Not Active”.
The same measure, in the same setting: to `CNC(=O)Oc1ccc2c(c1)[C@]1(C)CCN(C)[C@@H]1N2C` [PHYSOSTIGMINE] belongs “Not Active”; to `CCCCOC(=O)c1ccc(N)cc1` [BUTAMBEN], “Not Active”.

The next series has as its target T4, Alpha-1B adrenergic receptor (Rattus norvegicus, UniProt P15823).
T4 sequence (P15823 whole entry): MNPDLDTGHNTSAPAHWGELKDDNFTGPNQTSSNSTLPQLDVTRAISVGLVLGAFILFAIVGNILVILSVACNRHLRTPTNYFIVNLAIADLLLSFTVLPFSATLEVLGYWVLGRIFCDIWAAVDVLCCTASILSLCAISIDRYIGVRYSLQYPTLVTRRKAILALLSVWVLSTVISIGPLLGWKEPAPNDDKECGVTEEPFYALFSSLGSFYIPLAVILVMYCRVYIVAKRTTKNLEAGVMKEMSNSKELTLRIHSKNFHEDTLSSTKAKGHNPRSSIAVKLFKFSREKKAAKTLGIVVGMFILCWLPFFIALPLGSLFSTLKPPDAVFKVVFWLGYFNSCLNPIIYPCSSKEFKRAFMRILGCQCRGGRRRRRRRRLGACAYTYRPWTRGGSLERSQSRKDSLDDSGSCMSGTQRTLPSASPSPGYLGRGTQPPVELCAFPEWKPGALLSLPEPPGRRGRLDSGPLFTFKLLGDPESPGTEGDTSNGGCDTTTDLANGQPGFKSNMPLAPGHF
In words: DRUGMATRIX: Alpha-1B adrenergic receptor radioligand binding (ligand: prazosin). It is filed as cell membranes, Wistar, Liver, Membrane. The following applies: Not Active = under 50% inhibition at 10 µM.
Take `COC1=CC(=O)C[C@@H](C)[C@]12Oc1c(Cl)c(OC)cc(OC)c1C2=O` [GRISEOFULVIN]: the IC50 entry is “Not Active”.
On the same count and under the same terms, then `CNC(=O)Oc1ccc2c(c1)[C@]1(C)CCN(C)[C@@H]1N2C` [PHYSOSTIGMINE], with “Not Active”; and `CCCCOC(=O)c1ccc(N)cc1` [BUTAMBEN], with “Not Active”.
